Measured values taken from paper PMC12040169 (PLOS Biology, 2025).

Assay: in vitro
Conditions: human, hela cells, % viability

SMILES | viability at 28.5 h, 10 µM [%]
CC(C)S(=O)(=O)N1C[C@@H](c2ccccc2)[C@H]2[C@H]1CCCCCN2C [CBK283083] | 91.1
O=C(CN1CCCCCC1)N1CCCC1c1n[nH]cc1-c1cccc(Cl)c1 (stereo not drawn) [CBK283084] | 94.7
O=C(NC1(C#Cc2cnc3ccccc3c2)CCCCC1)C1CCCO1 (stereo not drawn) [CBK283085] | 81.9
OCC1CCN(Cc2cnn(C3CCCCC3)c2)C1 (stereo not drawn) [CBK283086] | 88.4
O=C(NCCn1cncn1)C1(c2ccccc2F)CC1 [CBK283087] | 87
Cc1ccc([C@]2(O)CC[C@H]3CN(Cc4cccc(F)c4F)C[C@H]32)nc1 [CBK283088] | 98.1
COc1ccc(N(Cc2cccnc2)C(=O)c2ccc(-c3ccccc3)[nH]c2=O)cc1 [CBK283089] | 105
NC(=O)CN1C(=O)[C@@H]2CCCN2C(=O)c2ccccc21 [CBK283090] | 110
CC1Cc2cc(C(O)CN3CCC(O)(c4ccccc4F)CC3)ccc2N1S(C)(=O)=O (stereo not drawn) [CBK283091] | 87.5
CC(=O)N1CCc2cc(C(O)CN3CCN(c4nsc5ccccc45)CC3)ccc21 (stereo not drawn) [CBK283092] | 93.3
CC(C)NC(=O)C1CN(Cc2ccccc2)CC12CCc1ccccc1C2NC(=O)CN (stereo not drawn) [CBK283093] | 79.4
Cc1oc2ccccc2c1CN(CCN(C)C)Cc1ccncc1 [CBK283097] | 87.8
Cc1nn(C)cc1CN(CCCn1ccnc1)Cc1cccc(F)c1 [CBK283098] | 92.3
Cc1ccc(CN(CCCn2ccnc2)Cc2cccnc2)o1 [CBK283100] | 106
CCn1cncc1CN(CCCn1ccnc1)Cc1ccc(C)s1 [CBK283104] | 93.6
OC1(c2ccc(F)cc2)CCC2CN(CC3CC3)CC21 (stereo not drawn) [CBK283105] | 88.9
Cc1ccc(CN(CCCn2ccnc2)Cc2cncn2C)s1 [CBK283106] | 90.2
CS(=O)(=O)N1CC2CCCC(O)(c3cccc(F)c3)C2C1 (stereo not drawn) [CBK283107] | 97.3
CC(C)S(=O)(=O)N1CC2CCCC(O)(c3cccc(F)c3)C2C1 (stereo not drawn) [CBK283109] | 109
CCC(=O)N1CCc2cc(C(O)CN3CCCC3)ccc21 (stereo not drawn) [CBK283110] | 97.7
CCC(=O)N1CCc2cc(C(O)CN3CCCCC3)ccc21 (stereo not drawn) [CBK283111] | 98.3

SMILES | viability at 28.5 h, 10 µM [%]
CCC(=O)N1CCc2cc(C(O)CN3CCCCC3C)ccc21 (stereo not drawn) [CBK283112] | 105
CCOc1ccc2[nH]c(C(=O)NC3CCCOC3)cc2c1 (stereo not drawn) [CBK283114] | 101
CCc1c(C(=O)NC2CCCOC2)[nH]c2ccc(F)cc12 (stereo not drawn) [CBK283115] | 97.5
COc1ccccc1CN(CCCn1ccnc1)Cc1ccco1 [CBK283116] | 111
C=CCNCc1cc2c(C)nn(-c3ccc(F)cc3)c2[nH]c1=O [CBK283117] | 111
CCn1cc(CN(CCCn2ccnc2)Cc2cccc(F)c2)cn1 [CBK283124] | 107
CCNC(=O)c1ccc(-n2cccn2)c(C#Cc2ccccn2)c1 [CBK283125] | 111
O=C1CC[C@@H](NCc2ccccc2O)[C@H](c2cc(F)cc(F)c2)N1 [CBK283126] | 107
O=C1CC[C@@H](NCc2ccco2)[C@H](c2cc(F)cc(F)c2)N1 [CBK283127] | 102
Cc1ccc(O)c(CN[C@@H]2CCC(=O)N[C@H]2c2cc(F)cc(F)c2)c1 [CBK283132] | 94
COc1ccccc1C1(O)CCCC2CN(C(C)=O)CC21 (stereo not drawn) [CBK283134] | 102
Cc1ccc(CN(CCCn2ccnc2)Cc2c[nH]cn2)s1 [CBK283136] | 95.1
O=C(NCc1cc(C2CC2)[nH]n1)C1(c2ccccc2F)CC1 [CBK283140] | 97.6
O=C(NC1CCCOC1)c1cc(-c2ccc(F)cc2)no1 (stereo not drawn) [CBK283141] | 107
CC1(C)CC(=O)c2cnc3cc(-c4ccco4)nn3c2C1 [CBK283142] | 102
CC(=O)N1c2ccc(C(O)CN3CCSCC3)cc2CC1C (stereo not drawn) [CBK283143] | 98.9
CC1Cc2cc(C(O)CN3CCCCC3)ccc2N1C(=O)C1CC1 (stereo not drawn) [CBK283144] | 97.4
CN(C)CCN(CCc1ccccc1)Cc1ccncc1 [CBK283145] | 91.5
CC1CCCN(C(=O)c2cc(-c3ccccn3)n[nH]2)C1C (stereo not drawn) [CBK283146] | 88.5
CN(CCc1ccncc1)C(=O)c1[nH]nc2c1CCCCC2 [CBK283151] | 96.9
Cc1cc2ncc3c(n2n1)CC1CCC3N1C(=O)CCn1cccc1 (stereo not drawn) [CBK283157] | 109

SMILES | viability at 28.5 h, 10 µM [%]
COc1ccccc1CN(CCCn1ccnc1)Cc1cccn1C [CBK283160] | 92.2
CCN1CCCC1CN(Cc1ccccn1)Cc1ccco1 (stereo not drawn) [CBK283161] | 91.3
O=C(NCCN1CCC(O)(c2ccc(F)cc2)CC1)C1CCCCC1 [CBK283165] | 106
Cc1ccc(C(=O)NCCN2CCC(O)(c3ccc(F)cc3)CC2)o1 [CBK283167] | 86.3
C=CCn1ncc(CN(C)Cc2nc3ccccc3[nH]2)c1C [CBK283169] | 96
C=Cn1ncc(CN(C)Cc2nc3ccccc3[nH]2)c1C [CBK283170] | 91.6
Cc1ccc(CN(CC2CCOC2)C2CC(C)(C)NC(C)(C)C2)o1 (stereo not drawn) [CBK283174] | 92.6
Cc1ccc(CN(Cc2[nH]cnc2C)C2CC(C)(C)NC(C)(C)C2)o1 [CBK283176] | 96.7
CN(C)CCCN(Cc1ccco1)Cc1cccn1-c1ccccn1 [CBK283180] | 99.8
Cc1ccnn1CCNC(=O)CCc1ccc(Cl)cc1 [CBK283182] | 91.1
CN(CCc1cn[nH]c1)C(=O)CCc1ccc(Cl)cc1 [CBK283183] | 91.1
O=C(CCc1ccc(Cl)cc1)NCCn1cncn1 [CBK283184] | 98.6
Cc1cc(C)c2cc(CNC3CC3)c3nn(C)c(=O)n3c2c1 [CBK283186] | 93.8
Cc1cccc(CN(CCCN(C)C)Cc2ccc(C)o2)n1 [CBK283187] | 98.2
Cc1ccc(CN(CCCN(C)C)Cc2cnc(C)n2C)o1 [CBK283188] | 95.4
Cc1ccc(CN(Cc2cncn2C)C2CC(C)(C)NC(C)(C)C2)o1 [CBK283192] | 103
CC1CCc2n[nH]c(C(=O)NC3CN4CCC3CC4)c2C1 (stereo not drawn) [CBK283193] | 108
CC1CCc2n[nH]c(C(=O)NCCCc3ccccn3)c2C1 (stereo not drawn) [CBK283194] | 105
CC1CCc2n[nH]c(C(=O)N(C)CCc3ccncc3)c2C1 (stereo not drawn) [CBK283195] | 99.5
CN(C)CCCN(Cc1ccc2ncccc2c1)Cc1ccco1 [CBK283197] | 112
CCN(Cc1ccccc1)Cc1nc2ccccc2c(=O)[nH]1 [CBK283203] | 95.6

SMILES | viability at 28.5 h, 10 µM [%]
CN(C)CCN(Cc1ccncc1)Cc1ccsc1 [CBK283206] | 102
O=C(NCCCCn1ccnc1)c1noc2c1CCCC2 [CBK283208] | 93.9
Cc1ccn(CCNC(=O)c2cc3ccc(F)cc3[nH]2)n1 [CBK283209] | 91.9
CCC(NC(=O)C(C)Cn1cccn1)c1ccc(F)cc1 (stereo not drawn) [CBK283210] | 88.1
CN(CCc1ccncc1)C(=O)c1cc2ccc(F)cc2[nH]1 [CBK283215] | 81.3
C1=CCC(CN(CCCn2ccnc2)CC2CCOC2)CC1 (stereo not drawn) [CBK283217] | 88.8
Cc1nc[nH]c1CN(CCCn1ccnc1)CC1CC=CCC1 (stereo not drawn) [CBK283218] | 83
CCn1cncc1CN(CCCn1ccnc1)CC1CC=CCC1 (stereo not drawn) [CBK283220] | 101
Cc1nn(C(C)C)c(C)c1CN(Cc1ccccn1)Cc1ccco1 [CBK283221] | 114
COc1cccc(C2(O)CCC3CN(C(C)=O)CC32)c1 (stereo not drawn) [CBK283222] | 95.8
CCC1c2cccn2CCN1C(=O)c1cc(-c2ccccn2)n[nH]1 (stereo not drawn) [CBK283224] | 102
Cn1cncc1CN(Cc1ccccc1)C1CC(C)(C)NC(C)(C)C1 [CBK283226] | 89.1
C=Cn1ncc(CN(CCCN(C)C)Cc2ccco2)c1C [CBK283228] | 96.8
Cc1ccc(CN(CCN(C)C)Cc2c(C)nc3sccn23)o1 [CBK283229] | 116
CC(C)C(=O)N[C@@H](C)Cn1c(C(F)(F)F)cc2cccnc21 [CBK283231] | 95.6
CCCC(=O)N[C@@H](C)Cn1c(C(F)(F)F)cc2cccnc21 [CBK283232] | 92.7
Cn1cc(CN(Cc2ccccc2)CC2CCCO2)cn1 (stereo not drawn) [CBK283233] | 85.1
C=Cn1ncc(CN(CCN(C)C)Cc2ccc(C)o2)c1C [CBK283236] | 110
O=C(NC1CCCOC1)c1cnn(-c2ccc(F)cc2)c1 (stereo not drawn) [CBK283248] | 89.4
CC(Cn1cccn1)C(=O)Nc1cccc(N2CCCC2)c1 (stereo not drawn) [CBK283249] | 87.1
CC(Cc1cccs1)NC(=O)C(C)Cn1cccn1 (stereo not drawn) [CBK283250] | 85.4
